Columns and labels:
[1] = Storage stability of organic semiconductor material: carrier mobility after storage in air; assay type: physicochemical; settings: deposited transistor stored for 9 days in air
Description: An organic thin film transistor was obtained in the same manner as in Example 17, except that pentacene (see the following formula) was used as the material for forming the organic semiconductor layer instead of the compound (A-3).
The field-effect mobility μ of holes in the organic thin film transistor was calculated in the same manner as in Example 17, and found to be […]. The carrier mobility calculated after storing the organic thin film transistor for 9 days in air was […].

[2] = Evaluation of solubility: temperature of toluene required to dissolve the compound at 0.4 mass %; assay type: physicochemical; settings: concentration of 0.4 mass %

Row | Dissolution temperature (° C.) in toluene [2] | Compound | carrier mobility after storage [1] | Dissolution temperature (° C.) in toluene ([2]; listed as comparative compound (2)) | deterioration in carrier mobility on storage [1]
1 |  | c1ccc2cc3cc4cc5ccccc5cc4cc3cc2c1 [pentacene] | 1.3×10^3 cm^2/Vs |  | 
2 | 90 °C | CCCCCCCCCCCCc1ccc2c(c1)sc1c2ccc2c1ccc1c3ccc(CCCCCCCCCCCC)cc3sc12 [Comparative compound (1)] |  |  | 
3 | 80 °C | CCCCCc1ccc2c(c1)sc1c2ccc2c1ccc1c3ccc(CCCCC)cc3sc12 [Compound A-3] | 1.1 cm^2/Vs |  | a deterioration in carrier mobility was not observed

Row | Compound | Dissolution temperature (° C.) in toluene [2] | carrier mobility after storage [1] | Dissolution temperature (° C.) in toluene ([2]; listed as comparative compound (2)) | deterioration in carrier mobility on storage [1]
4 | c1ccc2c(c1)sc1c2ccc2c1ccc1c3ccccc3sc12 [Comparative compound (2)] | Insoluble |  | not sufficiently dissolved | 

Source: patent publication US20140061616A1, “ORGANIC SEMICONDUCTOR MATERIAL, COATING LIQUID CONTAINING THE MATERIAL, AND ORGANIC THIN FILM TRANSISTOR” (IDEMITSU KOSAN CO., LTD., priority 2010, published 2014)
